Results published in patent US10795272B2, “Triphenylamine derivative, and charge transport material and electrophotographic photoreceptor using the same” (TAKASAGO INTERNATIONAL CORPORATION, priority 2016, dated 2020).

Columns and labels:
[1] = Solubility in tetrahydrofuran; type: physicochemical; settings: 25° C.; weight completely dissolved in 1 g of tetrahydrofuran
Experimental: Compound (1-1) was dissolved in 1 g of tetrahydrofuran at 25° C.
In the same manner as in Example 14, experiments were conducted by using Compound (1-4) or (1-9).
In the same manner as in Example 14, experiments were conducted by using Comparative Compound (5) which was a compound described in Japanese Patent Application Publication No. Hei 3-149560.

| SMILES | Solubility [1] [g/g tetrahydrofuran] | melting point [°C] |
| --- | --- | --- |
| C(=Cc1ccc(N(c2ccccc2)c2ccc(C=C(c3ccccc3)c3ccccc3)cc2)cc1)c1ccc(C=Cc2ccc(N(c3ccccc3)c3ccc(C=C(c4ccccc4)c4ccccc4)cc3)cc2)cc1 [Comparative Compound (5), reference compound] | 0.03 |  |
| Cc1ccc(N(c2ccc(/C=C/c3ccc(/C=C/C=C(c4ccccc4)c4ccccc4)cc3)cc2)c2ccc(/C=C/c3ccc(/C=C/c4ccc(N(c5ccc(C)cc5)c5ccc(/C=C/c6ccc(/C=C/C=C(c7ccccc7)c7ccccc7)cc6)cc5)cc4)cc3)cc2)cc1 [Compound (1-1)] | 0.16 | 178 to 180 |
| C(/C=C/c1ccc(/C=C/c2ccc(N(c3ccccc3)c3ccc(/C=C/c4ccc(/C=C/c5ccc(N(c6ccccc6)c6ccc(/C=C/c7ccc(/C=C/C=C(c8ccccc8)c8ccccc8)cc7)cc6)cc5)cc4)cc3)cc2)cc1)=C(c1ccccc1)c1ccccc1 [Compound (1-4)] | 0.13 | 162 to 164 |
| Cc1ccc(N(c2ccc(/C=C/c3ccc(/C=C/C=C(c4ccccc4)c4ccccc4)cc3)cc2)c2ccc(/C=C/c3ccc(/C=C/c4ccc(N(c5ccc(/C=C/c6ccc(/C=C/C=C(c7ccccc7)c7ccccc7)cc6)cc5)c5ccc(C)cc5C)cc4)cc3)cc2)c(C)c1 [Compound (1-7)] |  | 161 to 163 |
| COc1ccc(N(c2ccc(/C=C/c3ccc(/C=C/C=C(c4ccccc4)c4ccccc4)cc3)cc2)c2ccc(/C=C/c3ccc(/C=C/c4ccc(N(c5ccc(/C=C/c6ccc(/C=C/C=C(c7ccccc7)c7ccccc7)cc6)cc5)c5ccc(OC)cc5)cc4)cc3)cc2)cc1 [Compound (1-9)] | 0.14 | 222 to 224 |
| Cc1ccc(C(=C/C=C/c2ccc(/C=C/c3ccc(N(c4ccc(/C=C/c5ccc(/C=C/c6ccc(N(c7ccc(/C=C/c8ccc(/C=C/C=C(c9ccc(C)cc9)c9ccc(C)cc9)cc8)cc7)c7ccc(C)cc7C)cc6)cc5)cc4)c4ccc(C)cc4C)cc3)cc2)c2ccc(C)cc2)cc1 [Compound (1-17)] |  | 255 to 257 |
